{"source": "patent US11426375B2", "about": "“Substituted bisphenyl butanoic ester derivatives as NEP inhibitors” (NOVARTIS AG, priority 2019, dated 2022)", "key": {"[1]": {"parameters": "species or system Sprague Dawley rats", "settings": "rat, in vivo, po, 10 mg/kg", "procedure": "A parallel study design consisting of four groups with three animals per group was conducted to examine the pharmacokinetic properties of the compounds of the present disclosure.\nThe drugs were administered to each group are as follows: compound I-1 (Group 1), compound I-2 (Group 2), compound I-3 (Group 3), and AHU377 (sacubitril) (Group 4). Each animal received a single 10 mg/kg (5 ml/kg) oral gavage dose of the specified study drug. The animal weights ranged from […] at the beginning of the study. Compound I-1, compound I-2, compound I-3, and AHU377 were formulated in 0.5% methylcellulose (400 cp) and 0.1% Tween 80 (w,v) in water was used as the vehicle. Water bath sonication was applied to facilitate dispersing for all four study drugs. Blood samples for pharmacokinetics analysis were collected at t=0.25, 0.5, 1, 2, 4, 8, and 24 hours (±5%) post dose administration. Plasma was prepared by collecting whole blood samples into tubes containing EDTA and NaF (final concentrations: ˜1 mg/mL (K2EDTA) and ˜2 mg/mL (NaF)). These tubes were kept in an ice bath prior to centrifugation at approximately 2,000 rcf for 10 minutes at approximately 5° C. To each resultant plasma sample, 50% phosphoric acid (v/v) was added to achieve a final concentration of 1% (v,v).\n[^13C4]-LBQ657 was added as an internal standard to the pharmacokinetic (PK) samples and calibration standards prior to analysis by LC-MS/MS. The LC-MS system consisted of an API6500+ mass spectrometer coupled to an Agilent 1290 HPLC system equipped with a CTC Pal autosampler. The mass spectrometer was operated in the positive ion mode with a TESI ion source."}, "[2]": {"test_system": "DSS (Dahl Salt Sensitive) rats", "assay": "In vivo efficacy study on blood pressure in DSS rats (telemetry; systolic and diastolic pressure)", "settings": "for Systolic blood pressure, mean / Diastolic blood pressure, Mean: Compound I-1 50 mg/kg; for Systolic blood pressure, mean: alone or combined, QD PO", "text": "An in vivo study ascertains the effects on blood pressure in DSS (Dahl Salt Sensitive) rats. The DSS hypertensive rat model is a model of hypertension that is sensitive to dietary salt (NaCl), see for example Rapp (1982) Hypertension 4:753-763 and Hegde et al. BMC Pharmacology 2011, 11 (Suppl 1):P33. Under pentobarbital sodium anesthesia, a DSI (Data Sciences International, St. Paul, Minn.) telemetric probe is implanted. The transducer is inserted into abdominal aorta, and the transmitter is implanted into abdominal cavity. During postoperative recovery period, close observation is performed. Analgesics (Buprenorphine, 0.1-0.5 mg/kg, once per day for 1 day) and preventive antibiotics (Cephradine, 10˜15 mg/kg, ip., once per day for 3 days) are administered on a daily basis. Before the treatment period, all animals are fed with 8% high salt food for about 2 weeks. Test compound is formulated in 0.5% HPC and administered by oral gavage. Five groups of animals are treated as follows: 1. Vehicle, 0.5% HPC, QD, PO, N=5 2. Valsartan, 30 mg/kg, QD, PO, N=5 3. Compound I-1, 50 mg/kg, QD, PO, N=6 4. Compound I-1, 15 mg/kg+Valsartan, 30 mg/kg, QD, PO, N=5 5. Compound I-1, 50 mg/kg+Valsartan, 30 mg/kg, QD, PO, N=5 N is the number of animals. The mean arterial pressure, systolic pressure, diastolic pressure and heart rate after administration for each animal are measured. Interim results obtained before full study completion are shown in Tables 18 and 19 (full cohort of animals beyond day 7 were reduced due to some loss). Mean measurements of the systolic (Table 18) and diastolic (Table 19) blood pressures, for the baseline day prior to first treatment and for treatment days 1 and 7 only, in each treatment group, are shown. Measurements obtained every other hour only are shown."}}}
{"compound": "CCOC(=O)[C@H](C)C[C@@H](Cc1ccc(-c2ccccc2)cc1)NC(=O)CCC(=O)N[C@@H](CC(C)C)C(=O)O", "note": "[Compound I-1, (4-(((2S,4R)-1-([1,1′-biphenyl]-4-yl)-5-ethoxy-4-methyl-5-oxopentan-2-yl)amino)-4-oxobutanoyl)-L-leucine]", "values": [{"measurement": "LBQ657 concentration-time profile", "setting": "[1]; male, Sprague-Dawley", "result": "flattened relative to AHU377"}, {"measurement": "conversion to LBQ657", "setting": "[1]; male, Sprague-Dawley", "result": "nearly complete conversion to LBQ657"}, {"measurement": "LBQ657 exposure (based on AUC values)", "setting": "[1]", "result": "did not decrease relative to that of AHU377"}, {"measurement": "tolerability", "setting": "[1]", "result": "very well tolerated"}, {"measurement": "Systolic blood pressure, mean", "setting": "[2]; Baseline day prior to first treatment, Hour 1, groups Valsartan 30 mg/kg", "result": 163.63}, {"measurement": "Systolic blood pressure, mean", "setting": "[2]; Baseline day prior to first treatment, Hour 3, groups Valsartan 30 mg/kg", "result": 159.24}, {"measurement": "Systolic blood pressure, mean", "setting": "[2]; Baseline day prior to first treatment, Hour 5, groups Valsartan 30 mg/kg", "result": 155.66}, {"measurement": "Systolic blood pressure, mean", "setting": "[2]; Baseline day prior to first treatment, Hour 7, groups Valsartan 30 mg/kg", "result": 154.92}, {"measurement": "Systolic blood pressure, mean", "setting": "[2]; Baseline day prior to first treatment, Hour 9, groups Valsartan 30 mg/kg", "result": 157.92}, {"measurement": "Systolic blood pressure, mean", "setting": "[2]; Baseline day prior to first treatment, Hour 11, groups Valsartan 30 mg/kg", "result": 162.87}, {"measurement": "Systolic blood pressure, mean", "setting": "[2]; Baseline day prior to first treatment, Hour 13, groups Valsartan 30 mg/kg", "result": 167.91}, {"measurement": "Systolic blood pressure, mean", "setting": "[2]; Baseline day prior to first treatment, Hour 15, groups Valsartan 30 mg/kg", "result": 167.33}, {"measurement": "Systolic blood pressure, mean", "setting": "[2]; Baseline day prior to first treatment, Hour 17, groups Valsartan 30 mg/kg", "result": 167.09}, {"measurement": "Systolic blood pressure, mean", "setting": "[2]; Baseline day prior to first treatment, Hour 19, groups Valsartan 30 mg/kg", "result": 169.48}, {"measurement": "Systolic blood pressure, mean", "setting": "[2]; Baseline day prior to first treatment, Hour 21, groups Valsartan 30 mg/kg", "result": 169.41}, {"measurement": "Systolic blood pressure, mean", "setting": "[2]; Baseline day prior to first treatment, Hour 23, groups Valsartan 30 mg/kg", "result": 161.71}, {"measurement": "Diastolic blood pressure, Mean", "setting": "[2]; Baseline day, Hour 1", "result": 111.95}, {"measurement": "Diastolic blood pressure, Mean", "setting": "[2]; Baseline day, Hour 3", "result": 107.76}, {"measurement": "Diastolic blood pressure, Mean", "setting": "[2]; Baseline day, Hour 5", "result": 104.17}, {"measurement": "Diastolic blood pressure, Mean", "setting": "[2]; Baseline day, Hour 7", "result": 102.18}, {"measurement": "Diastolic blood pressure, Mean", "setting": "[2]; Baseline day, Hour 9", "result": 105.63}, {"measurement": "Diastolic blood pressure, Mean", "setting": "[2]; Baseline day, Hour 11", "result": 111.89}, {"measurement": "Diastolic blood pressure, Mean", "setting": "[2]; Baseline day, Hour 13", "result": 116.86}, {"measurement": "Diastolic blood pressure, Mean", "setting": "[2]; Baseline day, Hour 15", "result": 115.85}, {"measurement": "Diastolic blood pressure, Mean", "setting": "[2]; Baseline day, Hour 17", "result": 116.42}, {"measurement": "Diastolic blood pressure, Mean", "setting": "[2]; Baseline day, Hour 19", "result": 117.36}, {"measurement": "Diastolic blood pressure, Mean", "setting": "[2]; Baseline day, Hour 21", "result": 116.95}, {"measurement": "Diastolic blood pressure, Mean", "setting": "[2]; Baseline day, Hour 23", "result": 109.93}, {"measurement": "Diastolic blood pressure, Mean", "setting": "[2]; Dosing day 1, Hour 1", "result": 115.05}, {"measurement": "Diastolic blood pressure, Mean", "setting": "[2]; Dosing day 1, Hour 3", "result": 106.99}, {"measurement": "Diastolic blood pressure, Mean", "setting": "[2]; Dosing day 1, Hour 5", "result": 104.66}, {"measurement": "Diastolic blood pressure, Mean", "setting": "[2]; Dosing day 1, Hour 7", "result": 106.82}, {"measurement": "Diastolic blood pressure, Mean", "setting": "[2]; Dosing day 1, Hour 9", "result": 108.88}, {"measurement": "Diastolic blood pressure, Mean", "setting": "[2]; Dosing day 1, Hour 11", "result": 114.90}, {"measurement": "Diastolic blood pressure, Mean", "setting": "[2]; Dosing day 1, Hour 13", "result": 116.00}, {"measurement": "Diastolic blood pressure, Mean", "setting": "[2]; Dosing day 1, Hour 15", "result": 117.42}, {"measurement": "Diastolic blood pressure, Mean", "setting": "[2]; Dosing day 1, Hour 17", "result": 118.42}, {"measurement": "Diastolic blood pressure, Mean", "setting": "[2]; Dosing day 1, Hour 19", "result": 122.21}, {"measurement": "Diastolic blood pressure, Mean", "setting": "[2]; Dosing day 1, Hour 21", "result": 115.68}, {"measurement": "Diastolic blood pressure, Mean", "setting": "[2]; Dosing day 1, Hour 23", "result": 111.09}, {"measurement": "Diastolic blood pressure, Mean", "setting": "[2]; Dosing day 7, Hour 1", "result": 118.61}, {"measurement": "Diastolic blood pressure, Mean", "setting": "[2]; Dosing day 7, Hour 3", "result": 109.11}, {"measurement": "Diastolic blood pressure, Mean", "setting": "[2]; Dosing day 7, Hour 5", "result": 108.96}, {"measurement": "Diastolic blood pressure, Mean", "setting": "[2]; Dosing day 7, Hour 7", "result": 114.22}, {"measurement": "Diastolic blood pressure, Mean", "setting": "[2]; Dosing day 7, Hour 9", "result": 126.44}, {"measurement": "Diastolic blood pressure, Mean", "setting": "[2]; Dosing day 7, Hour 11", "result": 129.02}, {"measurement": "Diastolic blood pressure, Mean", "setting": "[2]; Dosing day 7, Hour 13", "result": 131.34}, {"measurement": "Diastolic blood pressure, Mean", "setting": "[2]; Dosing day 7, Hour 15", "result": 126.20}, {"measurement": "Diastolic blood pressure, Mean", "setting": "[2]; Dosing day 7, Hour 17", "result": 127.80}, {"measurement": "Diastolic blood pressure, Mean", "setting": "[2]; Dosing day 7, Hour 19", "result": 124.88}, {"measurement": "Diastolic blood pressure, Mean", "setting": "[2]; Dosing day 7, Hour 21", "result": 116.93}, {"measurement": "Diastolic blood pressure, Mean", "setting": "[2]; Dosing day 7, Hour 23", "result": 120.18}, {"measurement": "effect on blood pressure", "setting": "[2]; DSS rats, as compared to animals treated with vehicle alone, interim results", "result": "trend for lower blood pressure"}, {"measurement": "Systolic blood pressure, mean", "setting": "[2]; Dosing day 1, Hour 1, Valsartan 30 mg/kg", "result": 164.94}, {"measurement": "Systolic blood pressure, mean", "setting": "[2]; Dosing day 1, Hour 3, Valsartan 30 mg/kg", "result": 152.46}, {"measurement": "Systolic blood pressure, mean", "setting": "[2]; Dosing day 1, Hour 5, Valsartan 30 mg/kg", "result": 155.79}, {"measurement": "Systolic blood pressure, mean", "setting": "[2]; Dosing day 1, Hour 7, Valsartan 30 mg/kg", "result": 159.33}, {"measurement": "Systolic blood pressure, mean", "setting": "[2]; Dosing day 1, Hour 9, Valsartan 30 mg/kg", "result": 166.16}, {"measurement": "Systolic blood pressure, mean", "setting": "[2]; Dosing day 1, Hour 11, Valsartan 30 mg/kg", "result": 168.46}, {"measurement": "Systolic blood pressure, mean", "setting": "[2]; Dosing day 1, Hour 13, Valsartan 30 mg/kg", "result": 169.35}, {"measurement": "Systolic blood pressure, mean", "setting": "[2]; Dosing day 1, Hour 15, Valsartan 30 mg/kg", "result": 169.78}, {"measurement": "Systolic blood pressure, mean", "setting": "[2]; Dosing day 1, Hour 17, Valsartan 30 mg/kg", "result": 174.28}, {"measurement": "Systolic blood pressure, mean", "setting": "[2]; Dosing day 1, Hour 19, Valsartan 30 mg/kg", "result": 166.11}, {"measurement": "Systolic blood pressure, mean", "setting": "[2]; Dosing day 1, Hour 21, Valsartan 30 mg/kg", "result": 162.24}, {"measurement": "Systolic blood pressure, mean", "setting": "[2]; Dosing day 1, Hour 23, Valsartan 30 mg/kg", "result": 158.31}, {"measurement": "Systolic blood pressure, mean", "setting": "[2]; Dosing day 7, Hour 1, Valsartan 30 mg/kg", "result": 167.78}, {"measurement": "Systolic blood pressure, mean", "setting": "[2]; Dosing day 7, Hour 3, Valsartan 30 mg/kg", "result": 158.75}, {"measurement": "Systolic blood pressure, mean", "setting": "[2]; Dosing day 7, Hour 5, Valsartan 30 mg/kg", "result": 156.95}, {"measurement": "Systolic blood pressure, mean", "setting": "[2]; Dosing day 7, Hour 7, Valsartan 30 mg/kg", "result": 165.23}, {"measurement": "Systolic blood pressure, mean", "setting": "[2]; Dosing day 7, Hour 9, Valsartan 30 mg/kg", "result": 176.77}, {"measurement": "Systolic blood pressure, mean", "setting": "[2]; Dosing day 7, Hour 11, Valsartan 30 mg/kg", "result": 182.56}, {"measurement": "Systolic blood pressure, mean", "setting": "[2]; Dosing day 7, Hour 13, Valsartan 30 mg/kg", "result": 182.29}, {"measurement": "Systolic blood pressure, mean", "setting": "[2]; Dosing day 7, Hour 15, Valsartan 30 mg/kg", "result": 175.64}, {"measurement": "Systolic blood pressure, mean", "setting": "[2]; Dosing day 7, Hour 17, Valsartan 30 mg/kg", "result": 179.39}, {"measurement": "Systolic blood pressure, mean", "setting": "[2]; Dosing day 7, Hour 19, Valsartan 30 mg/kg", "result": 175.46}, {"measurement": "Systolic blood pressure, mean", "setting": "[2]; Dosing day 7, Hour 21, Valsartan 30 mg/kg", "result": 165.83}, {"measurement": "Systolic blood pressure, mean", "setting": "[2]; Dosing day 7, Hour 23, Valsartan 30 mg/kg", "result": 170.13}]}
